Experimental data published in US20230133445A1, “COMPOSITIONS AND METHODS FOR IMPROVING THE APPEARANCE OF SKIN” (L'Oreal, priority 2021, published 2023).

Experiments:
[1] = molecular target: T1, Neutrophil Elastase (Homo sapiens, UniProt P08246); assay: Neutrophil Elastase (NE) Inhibition in tubo assay (MAK213, Sigma-Aldrich); assay type: biochemical
T1 construct: purchased Sigma-Aldrich MAK213
T1 sequence (P08246 30-267): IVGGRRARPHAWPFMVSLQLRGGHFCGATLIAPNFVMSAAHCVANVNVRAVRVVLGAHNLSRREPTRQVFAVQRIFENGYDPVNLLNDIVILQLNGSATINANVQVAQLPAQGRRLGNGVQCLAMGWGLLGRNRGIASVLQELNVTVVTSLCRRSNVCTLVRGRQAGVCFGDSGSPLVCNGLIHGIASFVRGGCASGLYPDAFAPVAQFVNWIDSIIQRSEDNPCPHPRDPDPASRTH
Procedure: The ability of acetyl trifluoromethylphenyl valylglycine (“ATV”), glycolic acid, and/or lactic acid to inhibit the elastin-hydrolyzing effect of elastase was evaluated in a Neutrophil Elastase (NE) Inhibition in tubo assay (MAK213, Sigma-Aldrich, MO). Neutrophil Elastase activity was measured by hydrolyzing the substrate to yield a fluorescent product (λex=400/λem=505 nm) proportional to the enzymatic activity present.
A 4× sample inhibitor solution of the each tested chemical peeling agent and acetyl trifluoromethylphenyl valylglycine, and every combination provided in FIGS. 1 and 2 was prepared. The inhibitor/positive control (Elastase Inhibitor, SPCK, AG Scientific), enzyme/negative control (contains elastase), neutrophil elastase, and substrate solutions were prepared. The test compounds, controls, and neutrophil elastase were added to a 96-well plate, protected from light, and incubated at 37° C. for 5 minutes. The elastin substrate was then added to each well and the fluorescence (FLU, λex=400 nm, λem=505 nm) was measured every minute for thirty minutes at 37° C. The slope of the plot (time vs FLU) was taken. Relative inhibition was calculated as follows: […]

[2] = assay type: in vitro ADME, human
Procedure: Human skin samples were obtained from abdominal surgery. Excess subcutaneous fat was removed, if necessary. Skin samples were excised and cut into pieces of around 2 cm×2 cm. Thickness was measured and transepidermal water loss (TEWL) was measured. The human skin was included in the study if the TEWL was between 0.5 and 13 g/m^2/h for abdominal skin. The 2 cm^2 skin samples were kept in a static cell in a diffusion chamber in a Franz cell horizontal cell clamp system (Crown Glass Company, Inc.) and maintained at a constant temperature of 32° C.±1° C. The static cells consist of a donor chamber and a receptor chamber with a 7 mL receptor fluid compartment separated by the skin.
The cells were placed on a magnetic stirrer which was integrated with a fixed temperature water bath maintained in order to have 32° C.±1° C. at the skin surface. The receptor compartment of each cell was filled with the receptor fluid (PBS) and was continuously stirred. The skin samples were placed on the receptor compartment. The donor compartment was then placed onto the skin samples. […]
A composition containing 2 wt % acetyl trifluoromethylphenyl valylglycine was applied to the skin sample at a rate of 10 mg/cell using a positive displacement pipette and the exact amount applied was determined by weight then recorded (Sartorius Entris II Essential Analytical balance, Thermo-Fisher). […]
The skin was then stripped with consistent weight and time of application. […] The strips samples were stored with solvent (methanol) at −20° C. for a maximum of 5 days before being analyzed. […] The RS vials were stored with solvent (methanol) at −20° C. for a maximum of 7 days before being analyzed. Dermis and epidermis samples were stored with solvent at −20° C. for a maximum of 7 days before being analyzed. The receptor fluid was taken 16 hours after the application and the samples were analyzed.
Receptor fluid samples were stored at −20° C. for a maximum of 6 days before being analyzed. […] Samples were stored at −20° C. for a maximum of 5 days before being analyzed.
The final extract was analyzed by LC-MS/MS. […]

For `CC(=O)N(c1cccc(C(F)(F)F)c1)C(C(=O)NCC(=O)O)C(C)C` (stereo not shown) [ATV, acetyl trifluoromethylphenyl valylglycine], the “Average Inhibition (%)” value ([1]; Table 1, 0.0125 wt % ATV) was 12.49%, the “Average Inhibition (%)” value ([1]; Table 1, 0.025 wt % ATV) was 14.97% and the “Average Inhibition (%)” value ([1]; Table 1, 0.0625 wt % ATV) was 18.36%. For the same compound, the “Average Inhibition (%)” value ([1]; Table 2, 0.0125 wt % ATV) was 4.93%, the “Average Inhibition (%)” value ([1]; Table 2, 0.025 wt % ATV) was 9.311% and the “Average Inhibition (%)” value ([1]; Table 2, 0.0625 wt % ATV) was 11.96%. For the same compound, the “amount penetrated through the stratum corneum” value [2] was “about 0.08 wt %”, the “amount penetrating past the stratum corneum barrier into epidermis, dermis and receptor fluid” value [2] was “about 0.8%” and the “dermal dose of the 2 wt % preparation” value [2] was “at least 0.08 wt %”.

In the case of `O=C(O)CO` [Glycolic Acid, reference compound], the “Average Inhibition (%)” value ([1]; Table 1, 0.125 wt % Glycolic Acid) was 15.8949% and the “Average Inhibition (%)” value ([1]; Table 1, 0.625 wt % Glycolic Acid) was 23.89%.

With `CC(O)C(=O)O` (stereo not shown) [Lactic Acid, reference compound] the “Average Inhibition (%)” value ([1]; Table 2, 0.125 wt % Lactic Acid) was 8.507% and the “Average Inhibition (%)” value ([1]; Table 2, 0.625 wt % Lactic Acid) was 24.09%.
